Results on 17 compounds are retold here after ChEMBL document CHEMBL5236553, “Advances in the development of HIV integrase strand transfer inhibitors” (Eur J Med Chem, 2021).

The structures appear in SMILES notation. pEC50, pIC50: −log10 of the molar value. A value given as a limit tells only on which side of the number the result lay.

The target in data set [1] is Human immunodeficiency virus type 1 integrase (Human immunodeficiency virus 1, UniProt Q7ZJM1). Nature of the data set: Inhibition of HIV-1 integrase strand transfer activity.
Data set [2] addresses T1, Integrase (Human immunodeficiency virus 1, UniProt T1QYY3, G140S/Q148H). In words: Inhibition of HIV-1 integrase RAL-resistant G140S/Q148H double mutant.
Data set [3] has as its target Human immunodeficiency virus type 1 integrase (Human immunodeficiency virus 1, UniProt Q7ZJM1, G118R). In words: Inhibition of HIV-1 integrase DTG-resistant G118R mutant.
For data set [4], the target named is Human immunodeficiency virus type 1 integrase (Human immunodeficiency virus 1, UniProt Q7ZJM1, R263K). Nature of the data set: Inhibition of HIV-1 integrase DTG-resistant R263K mutant.
The target in data set [5] is Human immunodeficiency virus type 1 integrase (Human immunodeficiency virus 1, UniProt Q7ZJM1, H51Y/R263K). In words: Inhibition of HIV-1 integrase DTG-resistant H51Y/R263K double mutant.
The target in data set [6] is T1, Integrase. Nature of the data set: Inhibition of HIV-1 integrase G140S/Q148H double mutant.
In data set [7] the test system is Human immunodeficiency virus. Nature of the data set: Binding affinity to HIV-1 wildtype integrase DNA complex assessed as dissociative half life.
Data set [8] deals with Human immunodeficiency virus. In words: Antiviral activity against HIV-1 harboring integrase L74M mutant. Type of data set: functional, organism-based. As to conditions: Human immunodeficiency virus 1.
Data set [9] deals with Human immunodeficiency virus. In words: Antiviral activity against HIV-1 harboring integrase M50I mutant. As to conditions: Human immunodeficiency virus 1. It counts as functional, organism-based.
In data set [10] the test system is Human immunodeficiency virus. In words: Antiviral activity against HIV-1 harboring integrase G140S/Q148H mutant. Type of data set: functional, organism-based. As to conditions: Human immunodeficiency virus 1.
The test system of data set [11] is Human immunodeficiency virus. In words: Antiviral activity against HIV-1 harboring integrase […]/N155H mutant. It counts as functional, organism-based. As to conditions: Human immunodeficiency virus 1.
In data set [12] the test system is Human immunodeficiency virus. In words: Antiviral activity against HIV-1 harboring integrase E138K/Q148K mutant. It counts as functional, organism-based. As to conditions: Human immunodeficiency virus 1.
Data set [13] concerns Human immunodeficiency virus. In words: Antiviral activity against HIV-1 harboring integrase E92Q mutant. Type of data set: functional.
Data set [14] deals with Human immunodeficiency virus. In words: Fold change in antiviral EC50 against HIV-1 harboring integrase Y143R mutant. As to conditions: Human immunodeficiency virus 1.
Data set [15] deals with Human immunodeficiency virus. In words: Fold change in antiviral EC50 against HIV-1 harboring integrase Q148K mutant. As to conditions: Human immunodeficiency virus 1.
Data set [16] relates to Human immunodeficiency virus. In words: Antiviral activity against HIV-1 harboring integrase Q148R mutant. It counts as functional, organism-based. As to conditions: Human immunodeficiency virus 1.
Data set [17] relates to Human immunodeficiency virus. In words: Antiviral activity against HIV-1 harboring integrase N155H mutant. Type of data set: functional, organism-based. As to conditions: Human immunodeficiency virus 1.
The subject of data set [18] is Integrase (Human immunodeficiency virus 1). Nature of the data set: Inhibition of HIV-1 integrase-catalyzed strand transfer.
The test system of data set [19] is Human immunodeficiency virus. In words: Antiviral activity against HIV-1 assessed as inhibition of HIV infection in human T cells by cell based assay. It counts as functional, organism-based. As to conditions: Human immunodeficiency virus 1, T-cell.
The nature of data set [20]: Clearance in rat plasma. Type of data set: ADME, cell-free.
The nature of data set [21]: Clearance in dog plasma. It counts as ADME, cell-free, Canis lupus familiaris.
Data set [22] relates to Human immunodeficiency virus. Nature of the data set: Antiviral activity against wild type HIV-1 integrase. Type of data set: functional, organism-based. As to conditions: Human immunodeficiency virus 1.
The subject of data set [23] is Human immunodeficiency virus. Nature of the data set: Antiviral activity against HIV-1 harboring integrase G140S/Q148H double mutant. As to conditions: Human immunodeficiency virus 1. Type of data set: functional, organism-based.

In turn, `O=C(NCc1ccc(F)c(Cl)c1)c1cc2cccnc2n(O)c1=O` had a pIC50 in data set [1] of 6.85.
Turning to `O=C(NCc1c(F)cc(F)cc1F)c1cn2c(c(O)c1=O)C(=O)N1[C@H]3CC[C@H](C3)O[C@@H]1C2` [BICTEGRAVIR], the pEC50 in [2] is at least 8.30; in data set [3] it was at least 8.30; in [4], at least 8.30; in [5], at least 8.30; in [6], 8.51.
As to `O=C(NCc1ccc(F)cc1F)c1c(O)c2cccnc2n(O)c1=O`, the pIC50 in data set [1] is 6.26.
For the compound `O=C(NCc1ccc(F)cc1F)c1cc2cccnc2n(O)c1=O`, in [1], the pIC50 is 6.39.
As for `O=C(NCc1ccc(F)c(F)c1)c1c(O)c2cccnc2n(O)c1=O`, the pIC50 in [1] was 6.40.
Turning to `C[C@@H]1CCO[C@H]2Cn3cc(C(=O)NCc4ccc(F)cc4F)c(=O)c(O)c3C(=O)N12` [DOLUTEGRAVIR], in data set [7], the T1/2 was 71 h. Also, the pEC50 in [8] is 8.66; in data set [9] it was 8.68; in data set [10] it was 8.41; in data set [11], 8.40; in data set [12], 7.60.
In the case of `CN1C(=O)c2c3c(c(O)c(=O)n2[C@]12CC[C@H]1C[C@@]12CO)C(=O)N(Cc1ccc(F)c(Cl)c1)CC3`, in data set [13], the “fold change (FC)” value is recorded as 1. Also, the fold change in data set [14] and in data set [15] was 1 throughout.
Turning to `C[C@H](O)N1C(=O)c2c3c(c(O)c(=O)n2[C@]12CC[C@H]1C[C@H]12)C(=O)N(Cc1ccc(F)c(Cl)c1)CC3`, the pEC50 in data set [16] and in data set [17] was 8.82 throughout. Also, the “fold change (FC)” value in [13] was found to be 1.5. In addition, the fold change in [14] and in data set [15] was 1 each time.
In [1], `O=C(NCc1ccc(F)c(Cl)c1)c1c(O)c2cccnc2n(O)c1=O` showed a pIC50 of 6.57.
As to `Cc1nnc(C(=O)NC(C)(C)c2nc(C(=O)NCc3ccc(F)cc3)c(O)c(=O)n2C)o1`, in data set [13], the “fold change (FC)” value was 3. The compound also gave a pIC50 in data set [18] of 8.00.
In the case of `COc1cc2c(cc1Cc1cccc(Cl)c1F)c(=O)c(C(=O)O)cn2[C@H](CO)C(C)C`, the pEC50 in [19] was 9.05.
As for `CC(C)n1c(C(=O)N(C)C)c2c(c(O)c1=O)C(=O)N(Cc1ccc(F)c(Cl)c1)CC2`, in data set [13], the “fold change (FC)” value is 1. For the same compound, the clearance in [20] came to 2.3 mL/min/kg; in [21] it was 2.2 mL/min/kg. The fold change in data set [14] is 2; in [15], 1.
For the compound `Nc1c(C(=O)NCc2ccc(F)cc2F)c(=O)n(O)c2ncc(CCCCCCO)cc12`, the pEC50 is 8.80 in data set [8]; 8.89 in data set [9]; 9.05 in data set [10]; 8.96 in data set [11]; 7.80 in data set [12].
Turning to `O=C(NCc1ccc(F)cc1F)c1cc2cccc(O)c2n(O)c1=O`, the negative-log IC50 (pIC50) in [1] was 5.74.
Compound `O=C(NCc1ccc(F)c(F)c1)c1cc2cccnc2n(O)c1=O` had a pIC50 in data set [1] of 6.77.
Turning to `CC1(C)OCCn2c1nc(-c1ncc(Cc3ccc(F)cc3)[nH]1)c(O)c2=O`, the negative-log EC50 (pEC50) in data set [22] was 8.22; in [16] it was 7.48; in data set [23], 6.49; in [17], 8.70.
In the case of `CC1(C)OCCn2c1nc(C(=O)NCc1ccc(F)cc1)c(O)c2=O`, the pEC50 in data set [22] was 8.52; in data set [16], 6.52; in data set [23], below 5.10; in [17], 6.85.
